In the NIST ThermoML archive (doi:10.1021/je0340755):

Assay: xn = mol fraction of the nth substance listed
Settings: 101.3 kPa, Liquid; for viscosity: Capillary tube (Ostwald / Ubbelohde) method

OCCCCO [1,4-butanediol] + O
Settings	mass density [kg/m3]	speed of sound [m/s]	viscosity [mPa·s]
298.15 K, x2 = 0.055	1013.64	1609	68.26
298.15 K, x2 = 0.1534	1015.1	1623.6	59.73
298.15 K, x2 = 0.2472	1016.59	1637.5	51.48
298.15 K, x2 = 0.3542	1018.46	1658.6	42.26
298.15 K, x2 = 0.4531	1020.08	1678.2	33.95
298.15 K, x2 = 0.498	1020.71	1686	30.26
298.15 K, x2 = 0.5578	1021.37	1695.3	25.51
298.15 K, x2 = 0.6513	1021.78	1707.7	18.65
298.15 K, x2 = 0.7496	1020.65	1715.9	12.57
298.15 K, x2 = 0.8475	1016.21	1702.6	7.83
298.15 K, x2 = 0.9081	1010.66	1663.1	5.31
298.15 K, x2 = 0.9152	1009.83	1655.8	5.014
298.15 K, x2 = 0.9253	1008.58	1644.1	4.588
298.15 K, x2 = 0.9355	1007.24	1630.7	4.148
298.15 K, x2 = 0.9543	1004.56	1601.1	3.3
298.15 K, x2 = 0.955	1004.46	1599.8	3.267
298.15 K, x2 = 0.9597	1003.74	1591.3	3.045
298.15 K, x2 = 0.9699	1002.14	1571.1	2.544
298.15 K, x2 = 0.9804	1000.42	1547.9	2.001
298.15 K, x2 = 0.9901	998.77	1523.9	1.468
298.15 K, x2 = 0.9924	998.37	1517.8	1.337
298.15 K, x2 = 0.9955	997.83	1509.5	1.158
308.15 K, x2 = 0.055	1007.37	1591	42.31
308.15 K, x2 = 0.1534	1008.7	1604.6	37.48
308.15 K, x2 = 0.2472	1010.06	1617.7	32.83
308.15 K, x2 = 0.3542	1011.78	1637.1	27.6
308.15 K, x2 = 0.4531	1013.29	1655.1	22.83
308.15 K, x2 = 0.498	1013.88	1662.5	20.69
308.15 K, x2 = 0.5578	1014.52	1671	17.9
308.15 K, x2 = 0.6513	1014.99	1684.1	13.72
308.15 K, x2 = 0.7496	1014.15	1693	9.702
308.15 K, x2 = 0.8475	1010.43	1685.5	6.132
308.15 K, x2 = 0.9081	1005.69	1655	4.059
308.15 K, x2 = 0.9152	1004.98	1648.7	3.816
308.15 K, x2 = 0.9253	1003.91	1639.7	3.469
308.15 K, x2 = 0.9355	1002.76	1628.5	3.115
308.15 K, x2 = 0.9543	1000.47	1604.2	2.45
308.15 K, x2 = 0.955	1000.37	1603	2.425
308.15 K, x2 = 0.9597	999.76	1595.9	2.255
308.15 K, x2 = 0.9699	998.39	1579.2	1.881
308.15 K, x2 = 0.9804	996.91	1560.2	1.487
308.15 K, x2 = 0.9901	995.5	1540.2	1.112
308.15 K, x2 = 0.9924	995.16	1535.5	1.022
308.15 K, x2 = 0.9955	994.7	1528.5	0.899
318.15 K, x2 = 0.055	1001.62	1574.6	27.43
318.15 K, x2 = 0.1534	1002.81	1586.7	24.34
318.15 K, x2 = 0.2472	1004.04	1598.8	21.39
318.15 K, x2 = 0.3542	1005.59	1615.4	18.04
318.15 K, x2 = 0.4531	1006.95	1632.8	15
318.15 K, x2 = 0.498	1007.49	1640	13.63
318.15 K, x2 = 0.5578	1008.07	1648.7	11.84
318.15 K, x2 = 0.6513	1008.53	1661.1	9.148
318.15 K, x2 = 0.7496	1007.83	1671.4	6.533
318.15 K, x2 = 0.8475	1004.59	1669	4.179
318.15 K, x2 = 0.9081	1000.44	1645	2.8
318.15 K, x2 = 0.9152	999.82	1640.3	2.639
318.15 K, x2 = 0.9253	998.88	1633.3	2.408
318.15 K, x2 = 0.9355	997.88	1624.2	2.173
318.15 K, x2 = 0.9543	995.86	1604.9	1.732
318.15 K, x2 = 0.955	995.78	1603.8	1.716
318.15 K, x2 = 0.9597	995.24	1598.2	1.604
318.15 K, x2 = 0.9699	994.03	1584.8	1.357
318.15 K, x2 = 0.9804	992.74	1568.2	1.098
318.15 K, x2 = 0.9901	991.5	1552.7	0.853
318.15 K, x2 = 0.9924	991.2	1548.3	0.794
318.15 K, x2 = 0.9955	990.8	1542.8	0.714
328.15 K, x2 = 0.055	994.94	1554.9	18.38
328.15 K, x2 = 0.1534	996.05	1564.8	16.32
328.15 K, x2 = 0.2472	997.2	1575.6	14.35
328.15 K, x2 = 0.3542	998.64	1590.3	12.12
328.15 K, x2 = 0.4531	999.93	1605	10.08
328.15 K, x2 = 0.498	1000.44	1610.8	9.167
328.15 K, x2 = 0.5578	1001.01	1618.6	7.972
328.15 K, x2 = 0.6513	1001.51	1631.1	6.178
328.15 K, x2 = 0.7496	1000.99	1641.4	4.438
328.15 K, x2 = 0.8475	998.24	1642.3	2.877
328.15 K, x2 = 0.9081	994.62	1626.3	1.965
328.15 K, x2 = 0.9152	994.08	1623.2	1.858
328.15 K, x2 = 0.9253	993.26	1618	1.705
328.15 K, x2 = 0.9355	992.38	1611.8	1.549
328.15 K, x2 = 0.9543	990.62	1597.3	1.257
328.15 K, x2 = 0.955	990.55	1596.3	1.246
328.15 K, x2 = 0.9597	990.08	1592.2	1.172
328.15 K, x2 = 0.9699	989.02	1581.9	1.009
328.15 K, x2 = 0.9804	987.89	1569.6	0.837
328.15 K, x2 = 0.9901	986.81	1558.3	0.674
328.15 K, x2 = 0.9924	986.55	1555.3	0.635
328.15 K, x2 = 0.9955	986.2	1550.2	0.581
338.15 K, x2 = 0.055	988.66	1531.3	12.72
338.15 K, x2 = 0.1534	989.67	1540.8	11.28
338.15 K, x2 = 0.2472	990.72	1549.4	9.897
338.15 K, x2 = 0.3542	992.05	1562.2	8.335
338.15 K, x2 = 0.4531	993.23	1575.1	6.914
338.15 K, x2 = 0.498	993.7	1580.7	6.279
338.15 K, x2 = 0.5578	994.23	1588.5	5.449
338.15 K, x2 = 0.6513	994.7	1599	4.213
338.15 K, x2 = 0.7496	994.27	1611.3	3.033
338.15 K, x2 = 0.8475	991.81	1615.6	2
338.15 K, x2 = 0.9081	988.57	1606.6	1.404
338.15 K, x2 = 0.9152	988.08	1605.1	1.335
338.15 K, x2 = 0.9253	987.35	1601.7	1.235
338.15 K, x2 = 0.9355	986.56	1597.4	1.133
338.15 K, x2 = 0.9543	984.97	1587.8	0.941
338.15 K, x2 = 0.955	984.91	1586.8	0.934
338.15 K, x2 = 0.9597	984.49	1584.2	0.885
338.15 K, x2 = 0.9699	983.54	1577.1	0.776
338.15 K, x2 = 0.9804	982.52	1569	0.662
338.15 K, x2 = 0.9901	981.56	1560	0.553
338.15 K, x2 = 0.9924	981.32	1558.2	0.527
338.15 K, x2 = 0.9955	981.01	1554.5	0.491
